What was measured:
AZD4320 = compound: CN(CC[C@H](CSC1=CC=CC=C1)NC2=C(C=C(C=C2)S(=O)(=O)NC(=O)C3=CC=C(C=C3)N4CCC(CC4)[C@H](C5=CC=CC=C5C6=CC=C(C=C6)Cl)O)S(=O)(=O)C(F)(F)F)CCO [AZD4320]; conditions: max 1 µM
In short: (§1)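 Cancer cell lines were dosed for 72 hours (final DMSO typically 0.2%) after 24 hours at 37°C and 5% CO2 in 1536-well plates containing 7.5 μl DMEM/F12 or RPMI with 10% FBS. Viability came from CellTiter-Glo 2.0 luminescence, scaled between blank-well and DMSO-well means, and dose responses were fitted to a two-parameter logistic curve with a non-linear mixed effects model. The single-agent IC50 was obtained from this fit.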

AZD7648 = compound: Cc1cc2ncnn2cc1Nc1ncc2c(n1)n(C1CCOCC1)c(=O)n2C [AZD7648]; conditions: max 10 µM
In short: as §1

AZD6738 = compound: C[C@@H]1COCCN1C2=NC(=NC(=C2)C3(CC3)[S@](=N)(=O)C)C4=C5C=CNC5=NC=C4 [AZD6738]; conditions: max 10 µM
In short: as §1

Taselisib = compound: Cc1nc(-c2cn3c(n2)-c2ccc(-c4cnn(C(C)(C)C(N)=O)c4)cc2OCC3)n(C(C)C)n1 [Taselisib]; conditions: max 10 µM
In short: as §1

SG3199 = compound: CC1=CN2[C@@H](C1)C=NC3=CC(=C(C=C3C2=O)OC)OCCCCCOC4=C(C=C5C(=C4)N=C[C@@H]6CC(=CN6C5=O)C)OC [SG3199]; conditions: max 0.001 µM
In short: as §1

AZD0156 = compound: CN(C)CCCOc1ccc(-c2ccc3ncc4c(c3c2)n(C2CCOCC2)c(=O)n4C)cn1 [AZD0156]; conditions: max 3 µM
In short: as §1

Dasatinib = compound: CC1=C(C(=CC=C1)Cl)NC(=O)C2=CN=C(S2)NC3=CC(=NC(=N3)C)N4CCN(CC4)CCO [Dasatinib]; conditions: max 2 µM
In short: as §1

Paclitaxel = compound: CC(=O)O[C@H]1C(=O)[C@@]2(C)[C@H]([C@H](OC(=O)c3ccccc3)[C@]3(O)C[C@H](OC(=O)[C@H](O)[C@@H](NC(=O)c4ccccc4)c4ccccc4)C(C)=C1C3(C)C)[C@]1(OC(C)=O)CO[C@@H]1C[C@@H]2O [Paclitaxel]; conditions: max 3 µM
In short: as §1

Trametinib = compound: CC(=O)Nc1cccc(-n2c(=O)n(C3CC3)c(=O)c3c(Nc4ccc(I)cc4F)n(C)c(=O)c(C)c32)c1 [Trametinib]; conditions: max 1 µM
In short: as §1

Doxorubicin = compound: COc1cccc2c1C(=O)c1c(O)c3c(c(O)c1C2=O)C[C@@](O)(C(=O)CO)C[C@@H]3O[C@H]1C[C@H](N)[C@H](O)[C@H](C)O1 [Doxorubicin]; conditions: max 1 µM
In short: as §1

AZD1775 = compound: C=CCn1c(=O)c2cnc(Nc3ccc(N4CCN(C)CC4)cc3)nc2n1-c1cccc(C(C)(C)O)n1 [AZD1775]; conditions: max 3 µM
In short: as §1

Gemcitabine = compound: Nc1ccn([C@@H]2O[C@H](CO)[C@@H](O)C2(F)F)c(=O)n1 [Gemcitabine]; conditions: max 0.3 µM
In short: as §1

AZD5363 = compound: C1CN(CCC1(C(=O)N[C@@H](CCO)C2=CC=C(C=C2)Cl)N)C3=NC=NC4=C3C=CN4 [AZD5363]; conditions: max 10 µM
In short: as §1

Savolitinib = compound: C[C@@H](c1ccc2nccn2c1)n1nnc2ncc(-c3cnn(C)c3)nc21 [Savolitinib]; conditions: max 1 µM
In short: as §1

AZD5153 = compound: COc1nnc2ccc(N3CCC(c4ccc(OCCN5CCN(C)C(=O)[C@H]5C)cc4)CC3)nn12 [AZD5153]; conditions: max 1 µM
In short: as §1

AZD5991 = compound: Cc1c2c(nn1C)CSCc1cc(n(C)n1)CSc1cc(c3ccccc3c1)OCCCc1c(C(=O)O)n(C)c3c-2c(Cl)ccc13 [AZD5991]; conditions: max 1 µM
In short: as §1

Alisertib = compound: COc1cc(Nc2ncc3c(n2)-c2ccc(Cl)cc2C(c2c(F)cccc2OC)=NC3)ccc1C(=O)O [Alisertib]; conditions: max 10 µM
In short: as §1

Selumetinib = compound: Cn1cnc2c(F)c(Nc3ccc(Br)cc3Cl)c(C(=O)NOCCO)cc21 [Selumetinib]; conditions: max 10 µM
In short: as §1

MK-2206 = compound: NC1(c2ccc(-c3nc4ccn5c(=O)[nH]nc5c4cc3-c3ccccc3)cc2)CCC1 [MK-2206]; conditions: max 10 µM
In short: as §1

SN-38 = compound: CCc1c2c(nc3ccc(O)cc13)-c1cc3c(c(=O)n1C2)COC(=O)[C@]3(O)CC [SN-38]; conditions: max 0.3 µM
In short: as §1

5-Fluorouracil = compound: O=c1[nH]cc(F)c(=O)[nH]1 [5-Fluorouracil]; conditions: max 20 µM
In short: as §1

Prexasertib = compound: COc1cccc(OCCCN)c1-c1cc(Nc2cnc(C#N)cn2)n[nH]1 [Prexasertib]; conditions: max 1 µM
In short: as §1

[1] = compound: O=C(Nc1ccc2[nH]nc(-c3ccncc3)c2c1)[C@@H]1CCN(CC(=O)N2CCN(c3ccc(-c4ncccn4)cc3)CC2)C1; conditions: max 5 µM
In short: as §1

Venetoclax = compound: CC1(C)CCC(CN2CCN(c3ccc(C(=O)NS(=O)(=O)c4ccc(NCC5CCOCC5)c([N+](=O)[O-])c4)c(Oc4cnc5[nH]ccc5c4)c3)CC2)=C(c2ccc(Cl)cc2)C1 [Venetoclax]; conditions: max 1 µM
In short: as §1

Etoposide = compound: COc1cc([C@@H]2c3cc4c(cc3[C@@H](O[C@@H]3O[C@@H]5CO[C@@H](C)O[C@H]5[C@H](O)[C@H]3O)[C@H]3COC(=O)[C@H]23)OCO4)cc(OC)c1O [Etoposide]; conditions: max 10 µM
In short: as §1

AZD2811 = compound: CCN(CCO)CCCOc1ccc2c(Nc3cc(CC(=O)Nc4cccc(F)c4)[nH]n3)ncnc2c1 [AZD2811]; conditions: max 1 µM
In short: as §1

Lapatinib = compound: CS(=O)(=O)CCNCc1ccc(-c2ccc3ncnc(Nc4ccc(OCc5cccc(F)c5)c(Cl)c4)c3c2)o1 [Lapatinib]; conditions: max 10 µM
In short: as §1

Palbociclib = compound: CC(=O)c1c(C)c2cnc(Nc3ccc(N4CCNCC4)cn3)nc2n(C2CCCC2)c1=O [Palbociclib]; conditions: max 10 µM
In short: as §1

AZD1390 = compound: CC(C)n1c(=O)n(C)c2cnc3cc(F)c(-c4ccc(OCCCN5CCCCC5)nc4)cc3c21 [AZD1390]; conditions: max 0.3 µM
In short: as §1

Gefitinib = compound: COc1cc2ncnc(Nc3ccc(F)c(Cl)c3)c2cc1OCCCN1CCOCC1 [Gefitinib]; conditions: max 10 µM
In short: as §1

SRA737 = compound: N#Cc1cnc(Nc2cc(NC[C@H]3CNCCO3)c(C(F)(F)F)cn2)cn1 [SRA737]; conditions: max 10 µM
In short: as §1

Olaparib = compound: O=C(c1cc(Cc2n[nH]c(=O)c3ccccc23)ccc1F)N1CCN(C(=O)C2CC2)CC1 [Olaparib]; conditions: max 10 µM
In short: as §1

Carboplatin = compound: C1CC(C1)(C(=O)[O-])C(=O)[O-].N.N.[Pt+2] [Carboplatin]; conditions: max 10 µM
In short: as §1

AZD8186 = compound: C[C@@H](Nc1cc(F)cc(F)c1)c1cc(C(=O)N(C)C)cc2c(=O)cc(N3CCOCC3)oc12 [AZD8186]; conditions: max 10 µM
In short: as §1

Crizotinib = compound: C[C@@H](Oc1cc(-c2cnn(C3CCNCC3)c2)cnc1N)c1c(Cl)ccc(F)c1Cl [Crizotinib]; conditions: max 10 µM
In short: as §1

Cell Line: MG-63 (Osteosarcoma)
- IC50, cell viability 72 h (AZD4320): > 1 µM
- IC50, cell viability 72 h (AZD7648): > 10 µM
- IC50, cell viability 72 h (AZD6738): > 10 µM
- IC50, cell viability 72 h (Taselisib): 1.77 µM
- IC50, cell viability 72 h (SG3199): > 0.001 µM
- IC50, cell viability 72 h (AZD0156): > 3 µM
- IC50, cell viability 72 h (Dasatinib): 0.354 µM
- IC50, cell viability 72 h (Paclitaxel): 0.00823 µM
- IC50, cell viability 72 h (Trametinib): > 1 µM
- IC50, cell viability 72 h (Doxorubicin): > 1 µM
- IC50, cell viability 72 h (AZD1775): 2.81 µM
- IC50, cell viability 72 h (Gemcitabine): 0.0473 µM
- IC50, cell viability 72 h (AZD5363): 6.89 µM
- IC50, cell viability 72 h (Savolitinib): > 1 µM
- IC50, cell viability 72 h (AZD5153): 0.256 µM
- IC50, cell viability 72 h (AZD5991): > 1 µM
- IC50, cell viability 72 h (Alisertib): 2.03 µM
- IC50, cell viability 72 h (Selumetinib): > 10 µM
- IC50, cell viability 72 h (MK-2206): > 10 µM
- IC50, cell viability 72 h (SN-38): 0.0108 µM
- IC50, cell viability 72 h (5-Fluorouracil): > 20 µM
- IC50, cell viability 72 h (Prexasertib): 0.0727 µM
- IC50, cell viability 72 h [1]: 4.71 µM
- IC50, cell viability 72 h (Venetoclax): > 1 µM
- IC50, cell viability 72 h (Etoposide): > 10 µM
- IC50, cell viability 72 h (AZD2811): > 1 µM
- IC50, cell viability 72 h (Lapatinib): > 10 µM
- IC50, cell viability 72 h (Palbociclib): > 10 µM
- IC50, cell viability 72 h (AZD1390): > 0.3 µM
- IC50, cell viability 72 h (Gefitinib): > 10 µM
- IC50, cell viability 72 h (SRA737): > 10 µM
- IC50, cell viability 72 h (Olaparib): > 10 µM
- IC50, cell viability 72 h (Carboplatin): > 10 µM
- IC50, cell viability 72 h (AZD8186): 6.32 µM
- IC50, cell viability 72 h (Crizotinib): 7.07 µM

— the supplement of paper PMC11061612
